From ChEMBL document CHEMBL1201862, “PubChem BioAssay data set” (2004)
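Cells were grown in 96-well plates and exposed to each compound for 48 hours at five concentrations; endpoints were interpolated linearly between bracketing concentrations, or set to the highest concentration if not reached. The concentration for 50% growth inhibition is given as GI50.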 Calls of active or inactive are those of the source. Rule as the data show it: active = GI50 up to about 1.1 µM and inactive = higher.

Experiments:
Test in all cases: NCI tumour cell line growth inhibition, 48 h
M19-MEL = tested on: M19-MEL
SNB-78 = tested on: SNB-78
XF498 = tested on: XF498
RXF 631 = tested on: RXF 631
KM-20L2 = tested on: KM-20L2
DMS-273 = tested on: DMS-273
DMS-114 = tested on: DMS-114
HOP-18 = tested on: HOP-18
DLD-1 = tested on: DLD-1

Measured: GI50

CN(C)c1ccc(C(C=C2c3ccccc3Sc3ccccc32)=C(C#N)C#N)cc1
inactive: M19-MEL > 100 µM | SNB-78 45.1 µM | XF498 58.7 µM | RXF 631 > 100 µM | KM-20L2 89.1 µM | DMS-273 6.81 µM | DMS-114 56.4 µM | HOP-18 > 100 µM | DLD-1 > 100 µM
